Laboratory results reported in patent publication US10800781B2, “Compounds useful as inhibitors of ATR kinase” (Vertex Pharmaceuticals Incorporated, priority 2014, dated 2020).

Assays:
[1] = biological target: T1, full-length ATR (Homo sapiens, UniProt Q13535); experiment: ATR inhibition assay (radioactive-phosphate incorporation); assay type: biochemical; conditions: 5 nM full-length ATR, 10 μM ATP, 800 μM target peptide, 25° C.; read-out: Ki values (Ki(app)) for inhibiting ATR
T1 construct: Assays are carried out at 25° C. in the presence of 5 nM full-length ATR
T1 sequence (Q13535 whole entry): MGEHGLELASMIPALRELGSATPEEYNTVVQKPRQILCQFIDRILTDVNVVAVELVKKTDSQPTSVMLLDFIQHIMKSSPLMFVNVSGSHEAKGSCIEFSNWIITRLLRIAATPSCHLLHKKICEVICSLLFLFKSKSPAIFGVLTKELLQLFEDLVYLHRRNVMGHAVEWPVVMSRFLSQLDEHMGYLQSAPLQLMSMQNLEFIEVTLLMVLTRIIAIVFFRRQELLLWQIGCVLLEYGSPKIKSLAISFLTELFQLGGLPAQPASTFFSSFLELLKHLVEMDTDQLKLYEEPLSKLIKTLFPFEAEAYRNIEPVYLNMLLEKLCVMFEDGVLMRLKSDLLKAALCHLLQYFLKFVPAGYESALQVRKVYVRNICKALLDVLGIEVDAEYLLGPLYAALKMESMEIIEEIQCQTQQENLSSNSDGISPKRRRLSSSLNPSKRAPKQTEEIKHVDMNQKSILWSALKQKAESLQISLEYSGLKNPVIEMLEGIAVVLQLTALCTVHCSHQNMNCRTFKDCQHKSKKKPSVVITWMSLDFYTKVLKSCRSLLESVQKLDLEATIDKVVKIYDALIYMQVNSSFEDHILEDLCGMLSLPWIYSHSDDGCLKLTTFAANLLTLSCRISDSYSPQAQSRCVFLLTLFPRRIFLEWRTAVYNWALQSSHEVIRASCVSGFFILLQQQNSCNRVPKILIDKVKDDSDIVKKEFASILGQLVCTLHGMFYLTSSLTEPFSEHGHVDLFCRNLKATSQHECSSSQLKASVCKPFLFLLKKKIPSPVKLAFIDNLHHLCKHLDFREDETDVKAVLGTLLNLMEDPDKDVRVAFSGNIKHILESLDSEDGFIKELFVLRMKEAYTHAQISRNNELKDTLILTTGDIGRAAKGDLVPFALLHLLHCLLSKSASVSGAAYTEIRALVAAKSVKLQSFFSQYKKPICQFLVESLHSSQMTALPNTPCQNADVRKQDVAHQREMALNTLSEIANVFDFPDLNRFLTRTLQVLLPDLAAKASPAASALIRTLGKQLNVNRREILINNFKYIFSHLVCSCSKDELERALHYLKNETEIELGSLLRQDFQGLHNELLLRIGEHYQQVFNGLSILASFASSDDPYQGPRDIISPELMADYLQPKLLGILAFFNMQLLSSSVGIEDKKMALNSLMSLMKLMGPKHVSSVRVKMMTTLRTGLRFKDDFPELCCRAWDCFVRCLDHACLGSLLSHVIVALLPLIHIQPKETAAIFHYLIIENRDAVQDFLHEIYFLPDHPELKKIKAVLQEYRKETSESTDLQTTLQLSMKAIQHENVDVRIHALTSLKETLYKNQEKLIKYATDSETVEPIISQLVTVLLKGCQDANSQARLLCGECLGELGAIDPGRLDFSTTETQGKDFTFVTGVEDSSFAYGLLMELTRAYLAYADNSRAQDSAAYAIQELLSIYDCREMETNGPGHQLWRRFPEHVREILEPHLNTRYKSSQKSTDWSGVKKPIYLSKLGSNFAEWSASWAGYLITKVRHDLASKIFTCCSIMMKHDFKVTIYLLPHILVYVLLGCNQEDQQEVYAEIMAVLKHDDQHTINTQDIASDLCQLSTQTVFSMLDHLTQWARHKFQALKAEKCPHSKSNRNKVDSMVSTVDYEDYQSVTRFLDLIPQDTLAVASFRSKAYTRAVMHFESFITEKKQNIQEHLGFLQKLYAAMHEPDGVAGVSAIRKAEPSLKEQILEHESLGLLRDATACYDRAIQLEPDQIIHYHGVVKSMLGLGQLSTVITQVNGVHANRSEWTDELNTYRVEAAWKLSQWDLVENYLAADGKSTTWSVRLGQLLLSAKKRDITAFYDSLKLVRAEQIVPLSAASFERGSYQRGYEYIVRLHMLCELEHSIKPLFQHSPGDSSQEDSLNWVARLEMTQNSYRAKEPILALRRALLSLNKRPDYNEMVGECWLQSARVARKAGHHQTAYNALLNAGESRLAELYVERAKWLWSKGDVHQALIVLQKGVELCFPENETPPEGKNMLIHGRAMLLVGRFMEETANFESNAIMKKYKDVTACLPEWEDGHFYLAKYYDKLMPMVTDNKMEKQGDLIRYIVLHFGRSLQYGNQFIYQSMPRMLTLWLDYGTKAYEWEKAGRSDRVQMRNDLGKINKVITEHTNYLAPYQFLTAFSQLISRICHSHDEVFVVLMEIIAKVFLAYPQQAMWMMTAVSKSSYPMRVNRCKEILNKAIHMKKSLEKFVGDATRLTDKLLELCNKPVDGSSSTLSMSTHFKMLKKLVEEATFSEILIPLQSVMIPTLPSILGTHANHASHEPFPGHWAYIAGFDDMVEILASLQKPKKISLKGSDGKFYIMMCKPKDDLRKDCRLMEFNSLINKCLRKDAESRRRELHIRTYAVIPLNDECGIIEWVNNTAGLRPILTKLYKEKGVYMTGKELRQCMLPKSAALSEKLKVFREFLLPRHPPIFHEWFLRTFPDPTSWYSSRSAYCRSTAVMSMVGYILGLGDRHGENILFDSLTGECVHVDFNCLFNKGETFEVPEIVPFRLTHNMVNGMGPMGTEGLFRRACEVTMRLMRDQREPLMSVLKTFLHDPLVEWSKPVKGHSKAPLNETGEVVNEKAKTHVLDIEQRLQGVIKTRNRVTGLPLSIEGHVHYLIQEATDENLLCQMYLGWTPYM
Method: Compounds can be screened for their ability to inhibit ATR kinase using a radioactive-phosphate incorporation assay. Assays are carried out in a mixture of 50 mM Tris/HCl (pH 7.5), 10 mM MgCl2 and 1 mM DTT. Final substrate concentrations are 10 μM [γ-33P]ATP (3mCi 33P ATP/mmol ATP, Perkin Elmer) and 800 μM target peptide (ASELPASQPQPFSAKKK).
Assays are carried out at 25° C. in the presence of 5 nM full-length ATR. An assay stock buffer solution is prepared containing all of the reagents listed above, with the exception of ATP and the test compound of interest. 13.5 μL of the stock solution is placed in a 96 well plate followed by addition of 2 μL of DMSO stock containing serial dilutions of the test compound (typically starting from a final concentration of 15 μM with 3-fold serial dilutions) in duplicate (final DMSO concentration 7%). The plate is pre-incubated for 10 minutes at 25° C. and the reaction initiated by addition of 15 μL [γ-33P]ATP (final concentration 10 μM).
The reaction is stopped after 24 hours by the addition of 30 μL 0.1M phosphoric acid containing 2 mM ATP. […]
After removing mean background values for all of the data points, Ki(app) data are calculated from non-linear regression analysis of the initial rate data using the Prism software package (GraphPad Prism version 3.0cx for Macintosh, GraphPad Software, San Diego Calif., USA).

[2] = tested on: HCT116 colorectal cancer cells; experiment: Cisplatin sensitization assay, 96 h cell viability (MTS); assay type: cell-based; conditions: compound and Cisplatin added simultaneously
Method: Compounds can be screened for their ability to sensitize HCT116 colorectal cancer cells to Cisplatin using a 96 h cell viability (MTS) assay. […] Compounds and Cisplatin are then both added simultaneously to the cell media in 2-fold serial dilutions from a top final concentration of 10 μM as a full matrix of concentrations in a final cell volume of 200 μl, and the cells are then incubated at 37° C. in 5% CO2. After 96 h, 40 μl of MTS reagent (Promega G358a) is added to each well and the cells are incubated for 1 h at 37° C. in 5% CO2. Finally, absorbance is measured at 490 nm using a SpectraMax Plus 384 reader (Molecular Devices) and the concentration of compound required to reduce the IC50 of Cisplatin alone by at least 3-fold (to 1 decimal place) can be reported.

Cn1cncc1-c1c(F)cncc1NC(=O)c1c(N)nn2cc(F)cnc12 [Compound I-1, 2-amino-6-fluoro-N-(5-fluoro-4-(1-methyl-1H-imidazol-5-yl)pyridin-3-yl)pyrazolo[1,5-a]pyrimidine-3-carboxamide]
Ki [1]: < 1000 nM | Cisplatin sensitization values (concentration of compound required to reduce the IC50 of Cisplatin alone by at least 3-fold) [2]: < 0.2 µM
